Experiment: Elution of rapamycin from polymer-coated stents into PBS at 37° C., monitored by UV/vis
Assay type: physicochemical
Conditions: stent coating with 25% rapamycin, cumulative absorbance at 279 nm
Procedure: Solutions were prepared by dissolving the polymers listed in Table 1 in CHCl3 with 25% (by weight of the solid polymer) rapamycin. After cooling for 5 minutes, the stents were attached to a mandrel and coated on the Sonotek MediCoat Benchtop Coater with a 0.5% w/w solution in CHCl3 of polymer/drug (75/25). The parameters used were: 0.09 ml/min flow rate, 1.0 W ultrasonic power, 16 passes, 40 rpm rotation, 0.13 cm/s horizontal travel and 25 mm from stent to spray head. After coating, the stents were dried under vacuum for 16 hours at 40° C. The stents were released into phosphate buffered saline solution (PBS) at 37° C. and the elution monitored by UV/vis spectroscopy. Fresh buffer solution was added after each reading and the cumulative absorbance at 279 nm was recorded.

CCCCCCCCCCCC(=O)O [lauric acid]
rate of release (elution) of rapamycin: minimal affect on the rate of release of rapamycin

Reference: US20110287080A1, “COATING II” (SMITH & NEPHEW PLC, priority 2008, published 2011)
